From patent US20090181904A1, “METHOD FOR REGULATING NUTRIENT ABSORPTION WITH GINSENOSIDES” (priority 2005, published 2009)

Columns and labels:
Format in all cases: cell-based, human
[1] = test system: Caco-2 cell monolayer; test: Arginine absorption assay (transport across Caco-2 monolayer, 3H-arginine); details: for Transport rate (arginine): 10 mM L-arginine
Description: In measuring transport of arginine across the Caco-2 cell monolayer, both sides of the transwells were washed with arginine incubation buffer consisting of: 137 mM NaCl, 10 mM Hepes, 0.3 mM NaH2PO4, 0.3 mM K2HPO4, 5.4 mM KCl, 2.8 mM CaCl2, 1 mM MgSO4, 10 mM glucose, adjusted to pH 7.4. Then, the cell layer was pre-incubated in the incubation buffer at 37° C. for 1 h. The volumes of incubation buffer were 0.2 mL and 0.9 mL in the apical and basolateral chambers, respectively. The cells were replaced with fresh incubation medium in both chambers prior to the transport experiment. The transport experiment was initiated by replacing the incubation solution on the apical side with solution containing 10 mM of L-arginine in which 0.125 μCi/mL of L-[^3H]-arginine was included. At designated time intervals, 10 μL-solution samples were removed from the basolateral side and radioactivity of each sample was counted using a microplate liquid scintillation counter (TopCount, Packard NXT). During the experiment, when a 10 μL-solution sample was removed from the basolateral side every time, 10 μL buffer was supplemented to keep the volume constant. The uptake of [^3H]-mannitol was used to correct for nonspecific transport of molecules across the monolayer membrane. Results were expressed as the nanomoles of arginine transport across the Caco-2 cell monolayers with respect to time in minutes (nmol/min).

[2] = test system: Caco2 cell monolayer; test: Glucose absorption assay (transport across Caco2 monolayer in transwell, 14C-glucose); details: for Transport rate (glucose): 2 days pretreatment, 25 mM glucose
Description: For glucose absorption assay, 0.3 mL (10^5 cell/ml) of Caco2 cells were seeded into the apical chamber of each transwell and the basolateral chamber was added with 1 ml of culture medium (as indicated above). Costar transwell inserts (No. 3414, Corning Incorporated, NY, USA) separate each well in 24-well plates into an apical chamber (defined as a chamber above the insert) and a basolateral chamber (defined as a chamber below the insert). The culture medium in each transwell was changed every 2 days in both of the apical and basolateral chambers. To ensure the integrity of tight junction of Caco2 monolayer membrane formed in the transwell, a Trans-Epithelial Electrical Resistance (TEER) assay was conducted using Millicell®-ERS (Millipore EVOM-6; World Precision Instrument, Sarasota, Fla., USA) to measure the TEER between apical and basolateral chambers of the transwell. As the measured TEER reached 300 to 450 Ωcm^2 with the presence of differentiated brush border on the […] side of the cell on the 14th to 21st day of the culture, the Caco2 monolayer was ready for the glucose absorption test. The TEER values were taken before, during, and after each experiment to justify consistency of the data collected.
Glucose absorption was initiated by replacing the culture medium in the basolateral chamber with fresh glucose absorption buffer and the culture medium in the apical chamber with 0.2 mL of the glucose absorption buffer containing 2 μCi/ml of radioactive D-[^14C]-glucose (60 Ci/mmol, American Radiolabeled Chemicals, ARC, St. Louis, Mo., USA) and unlabeled cold glucose to give glucose at a final concentration of 25 mM. A series of five 10-μL samples were taken from the basolateral chamber at every 5 or 10 minute intervals. In order to maintain the constant buffer volume, same amount of sample buffer were added back to the basolateral chamber after withdrawn of each sample. The samples were transferred to the filter-bottomed UniFilter plates (Perkin-Elmer, Wellesley, Mass., USA) and dried in a vacuum oven at 37° C. The bottom of the UniFilter plate was sealed and 25 μL of the counting solution were added into each well. Adhesive plate sealers were used in place of the lids and radioactivity of each sample was counted using the microplate liquid scintillation counter (TopCount, Packard NXT, Packard BioScience Company, Meriden, Conn., USA). The effect of test compounds on glucose absorption was expressed as the nmoles of glucose accumulated in the basolateral chamber with respect to time in minutes (nmol/min). The glucose absorption rate was obtained by calculating the slope of the straight line from the time zero to the end point of the graphic data of each figure.

[3] = test system: Caco2 cells; test: Folate uptake assay (3H-folate uptake in Caco2 cells); details: compound 0.1 μM; for Transport rate (folate uptake): 2 days pretreatment, 5 μM folate, pH 6.0
Description: The Caco2 cells were subjected to folate uptake test in a manner similar to that described in the glucose uptake assay in Example 1 above. In the folate uptake test, the Caco2 cells were pretreated with the culture medium containing 5% FBS and purified ginsenosides at a concentration of […] for 2 days before the cells were cultured in a folate uptake buffer (Hank's balanced salt solution, supplemented with 0.14 g/L CaCl2, 0.1 g/L MgCl2, and 0.1 g/L MgSO4, pH 6.0) for 1 hour. The buffer was then aspirated, and uptake was initiated by adding 0.2 mL of fresh folate uptake buffer containing 2 μCi/mL radioactive folate (3,5,7,9-^3H-folic acid, 25 mCi/mmol, ARC) and cold, unlabeled folate giving a final folate concentration of 5 μM. Folate uptake was terminated by removing the uptake buffer at designated time intervals. The cells were then washed three times with ice-cold PBS and lysed by adding 0.2 mL of 0.2 N NaOH, followed by incubating at 65° C. for 20 min. Intracellular uptake of ^3H-folate was determined by transferring 20 μL of the cell lysate to the filter-bottomed UniFilter plates (Perkin-Elmer) and counting as described previously in Example 1. The amount of folate accumulated in the cells was calculated and normalized to protein concentration, and uptake rate was expressed as picomoles of folate per minutes per milligram of cell protein (pmol/min/mg). Protein concentration was determined by a standard Bicinchoninic acid (BCA) protein assay as described above.

Structure (SMILES) | Percentage (arginine transport, control = 100) ([1]; compound 0.01 μM) | Transport rate (arginine) ([1]; compound 0.01 μM) | Percentage (arginine transport, control = 100) ([1]; compound 0.1 μM) | Transport rate (arginine) ([1]; compound 0.1 μM) | Percentage (arginine transport, control = 100) ([1]; compound 1 μM) | Transport rate (arginine) ([1]; compound 1 μM) | Percentage (glucose transport, control = 100) ([2]; compound 0.01 μM) | Transport rate (glucose) ([2]; compound 0.01 μM) | Percentage (glucose transport, control = 100) ([2]; compound 0.1 μM) | glucose transport rate (in words, FIG. 1) ([2]; compound 0.1 μM to 5 μM) | Transport rate (glucose) ([2]; compound 0.1 μM) | Percentage (glucose transport, control = 100) ([2]; compound 1 μM) | Transport rate (glucose) ([2]; compound 1 μM) | Percentage (folate uptake, control = 100) [3] | folate uptake versus non-treated control (in words, FIG. 5) [3] | Transport rate (folate uptake) [3] | effect on glucose absorption (in words) [2]
CC(C)=CCC[C@](C)(O[C@@H]1O[C@H](CO[C@@H]2O[C@H](CO)[C@@H](O)[C@H](O)[C@H]2O)[C@@H](O)[C@H](O)[C@H]1O)[C@H]1CC[C@]2(C)[C@@H]1[C@H](O)C[C@@H]1[C@@]3(C)CC[C@H](O[C@@H]4O[C@H](CO)[C@@H](O)[C@H](O)[C@H]4O[C@@H]4O[C@H](CO)[C@@H](O)[C@H](O)[C@H]4O)C(C)(C)[C@@H]3CC[C@]12C [Rb1, ginsenoside Rb1] | 90.30% | 9.6487 ± 0.9377 nmol/min | 111.08% | 11.8699 ± 1.9300 nmol/min | 151.12% | 16.1484 ± 0.6228 nmol/min | 102.26% | 2.2306 ± 0.1034 nmol/min | 128.85% | increased | 2.8107 ± 0.1982 nmol/min | 157.01% | 3.4250 ± 0.4805 nmol/min | 108.72% | increased folate uptake | 1.8710 ± 0.0320 pmol/mg/min | 
CC(C)=CCC[C@](C)(O)[C@H]1CC[C@]2(C)[C@@H]1[C@H](O)C[C@@H]1[C@@]3(C)CC[C@H](O)C(C)(C)[C@@H]3[C@@H](O)C[C@]12C [Rga, 20(S)-protopanaxatriol] | 118.16% | 12.6265 ± 0.9875 nmol/min | 100.66% | 10.7555 ± 0.4532 nmol/min | 95.38% | 10.1920 ± 1.2390 nmol/min | 116.69% | 2.5454 ± 0.7808 nmol/min | 167.15% |  | 3.6462 ± 0.4105 nmol/min | 104.01% | 2.2689 ± 0.2598 nmol/min |  |  |  | 
CC(C)=CCC[C@](C)(O)C1CC[C@]2(C)C1C(O)CC1[C@@]3(C)CCC(O)C(C)(C)C3C(OC3OC(CO)C(O)C(O)C3O)C[C@]12C (some centres unmarked) [Rh1, ginsenoside Rh1] | 105.56% | 11.2792 ± 0.7768 nmol/min | 109.13% | 11.6615 ± 0.8085 nmol/min | 134.02% | 14.3209 ± 0.7418 nmol/min | 62.20% | 1.3568 ± 0.1090 nmol/min | 74.86% |  | 1.6329 ± 0.1976 nmol/min | 61.02% | 1.3310 ± 0.8356 nmol/min | 49.36% | decreased | 0.8494 ± 0.453 pmol/mg/min | inhibitory effect
CC(C)=CCC[C@](C)(O[C@@H]1O[C@H](CO)[C@@H](O)[C@H](O)[C@H]1O)[C@H]1CC[C@]2(C)[C@@H]1[C@H](O)C[C@@H]1[C@@]3(C)CC[C@H](O)C(C)(C)[C@@H]3[C@@H](O)C[C@]12C [GF1, ginsenoside F1] | 126.74% | 13.5425 ± 1.8630 nmol/min | 118.73% | 12.6865 ± 0.2964 nmol/min | 97.06% | 10.3711 ± 0.6574 nmol/min | 141.12% | 3.0783 ± 0.9550 nmol/min | 153.80% |  | 3.3551 ± 0.3248 nmol/min | 150.65% | 3.2862 ± 0.3429 nmol/min |  |  |  | 
